{"source": "patent US3930838A", "about": "“S-benzyl-N,N-disec-butylthiocarbamate and its use as a rice field herbicide and a rice growth stimulant” (priority 1970, dated 1976)", "key": {"Alisma sp.": {"test_system": "Alisma sp.", "test": "Outdoor infestation degree in rice plots (Example 15)", "assay_type": "in vivo", "conditions": "36 days", "experimental": "(§1) In the province of Novara, Italy, a test was performed outdoors in clay soil. For each treatment, a 600 m^2 plot provided with independent water feed was prepared. After soil working and leveling, the treatment was effected on Apr. 23, 1970, using formulations in emulsifiable oils of M3432 and of molinate, sprayed by means of mechanical devices. Only the plot treated with molinate was harrowed just after treatment in order to incorporate the product and to avoid any losses of same due to volatilization. Immediately afterwards, the plots were flooded to a water level of 10-12 cm.\n(§2) A clear confirmation of the efficiency of M3432 towards Echinocloa spp. was obtained outdoors, where the test was carried out under conditions which are characteristic of Italian rice growing. The experimental conditions are described in Example 10."}, "Scirpus sp.": {"test_system": "Scirpus sp.", "test": "Outdoor infestation degree in rice plots (Example 15)", "assay_type": "in vivo", "conditions": "36 days", "experimental": "as §1, §2"}, "Echinocloa spp. [1]": {"test_system": "Echinocloa spp.", "test": "Outdoor infestation degree in rice plots (Example 15)", "assay_type": "in vivo", "conditions": "for Infestation degree, plants per 10 square meters: 2 months", "experimental": "as §1, §2"}, "Setaria italica": {"test_system": "Setaria italica", "test": "Weeding activity in screening conditions (Example 12)", "assay_type": "in vivo", "conditions": "25 days", "description": "(§3) Two sets of small square tanks having 11 cm. sides, filled with field earth admixed with 30% of sand, were sowed at a depth of 0.5-1 cm. with the following grass species: Echinocloa crus galli, Setaria italica, Alopecurus myosiuroides, Lolium italicum, Digitaria sanguinalis, Avena fatua, Agrostis segetum, and Dactylis glomerata. After sowing, the earth surface of the tanks was uniformly sprayed with 2.4 cc./tank of hydroacetone solutions containing, respectively, 0, 0.05, 0.10, 0.20 and 0.30% of M3432 and of molinate, respectively, in order to obtain doses thereof corresponding to 0, 1, 2, 4, and 6 kg./ha., respectively.\n(§4) Only one set of small tanks was covered with a 1 cm. layer of earth just after the treatment. All of the tanks were kept in an air-conditioned chamber identical with that described in Example 7, and were watered every day. 25 days after the treatment, the final results were examined, attributing to each treatment the following scale of values: […]"}, "Dactylis glomerata": {"test_system": "Dactylis glomerata", "test": "Weeding activity in screening conditions (Example 12)", "assay_type": "in vivo", "conditions": "25 days", "description": "as §3, §4"}, "Echinocloa crus galli": {"test_system": "Echinocloa crus galli", "test": "Weeding activity in screening conditions (Example 12)", "assay_type": "in vivo", "conditions": "25 days", "description": "as §3, §4"}, "rats": {"test_system": "rats", "conditions": "os, literature values; cited from earlier work"}, "Echinocloa spp. [2]": {"test_system": "Echinocloa spp.", "test": "Post emergence hothouse test No. 2 (Example 16)", "assay_type": "in vivo", "conditions": "4, 6, and 8 kg./ha., 26 days; plants max. 10 cm. at treatment", "experimental": "A set of boxes having a 1,000 cm^2 internal surface was prepared in a hothouse according to the method described in Example 9. The boxes were sowed with Echinocloa spp. (70 seeds per box). After saturation of the soil, and as soon as the infesting plants emerged from the soil, the boxes were flooded with a 7 cm. layer of water. When the plants reached a maximum height of 3-4 cm., the treatment was effected by spraying the flooding water surfaces with hydroacetone solutions according to the modalities employed in Example 9. 3 days after the treatment, the following results were observed:\nA second test was carried out in the same manner as Test No. 1 except that the treatment took place when the infesting plants had reached a maximum of 10 cm. 26 days after such treatment, the following was observed: […]"}, "rice [3]": {"test_system": "rice", "test": "Stimulating action on rice, general statement", "conditions": "in vivo"}, "rice [4]": {"test_system": "rice", "test": "Further test on rice in submerged culture at high doses (Example 8)", "assay_type": "in vivo", "conditions": "33 days", "experimental": "Into a set of cylindrical pots having a 200 cm^2 internal surface, sieved rice field earth in a quantity of 1 kg. per pot was introduced. After leveling and wetting with 200 cc. of water, the earth surface of the pots was uniformly sprayed with hydroacetone solutions containing, respectively, 0, 0.2, 0.3, and 0.4% active product (a.p.). 4 Ml. of the solution were sprayed onto each pot, so that the amount of active product in a set of four pots was 0, 4, 6, and 8 kg./ha., respectively. Immediately after spraying, each pot was filled with water to a level of 7 cm. over the soil surface. Thereafter, the sowing was carried out at the rate of 15 pre-germinated rice seeds per pot. Three repetitions were performed for each treatment. The pots were kept in an air-conditioned atmosphere with a daily temperature variation between 10° and 25°C and a 14 hour per day light period. After 24 days, the percentage of sprouted plants and the length of the shoot were recorded.\nIn view of the foregoing results, a further test was conducted according to the methodology of Example 7. During such test, M3432 was employed in quantities of 10, 20, and 30 kg./ha. The results were gathered 33 days after the treatments."}, "[5]": {"conditions": "Treated surface covered with 1 cm earth layer, 2 kg./ha."}, "[6]": {"conditions": "Treated surface covered with 1 cm earth layer, 4 kg./ha."}, "[7]": {"conditions": "Treated surface covered with 1 cm earth layer, 6 kg./ha."}}, "data": [{"smiles": "CCSC(=O)N1CCCCCC1", "note": "[Molinate, ethyl-1-hexamethylene-imino-carbothiolate, reference compound]", "values": [{"measurement": "Infestation degree", "setting": "Alisma sp.; 4 kg./ha.", "result": "moderate (moderate = 1 - 4 plants per m^2)"}, {"measurement": "Infestation degree", "setting": "Scirpus sp.; 4 kg./ha.", "result": "moderate (moderate = 1 - 4 plants per m^2)"}, {"measurement": "Infestation degree, plants per 10 square meters", "setting": "Echinocloa spp. [1]; 4 kg./ha.", "result": "1-2 no."}, {"measurement": "Infestation degree", "setting": "Echinocloa spp. [1]; 4 kg./ha., 36 days", "result": "almost nil (almost nil = 0.1 plants per m^2)"}, {"measurement": "Weeding activity", "setting": "Setaria italica; Surface, 2 kg./ha.", "result": "0/1"}, {"measurement": "Weeding activity", "setting": "Setaria italica; Surface, 4 kg./ha.", "result": "0/1"}, {"measurement": "Weeding activity", "setting": "Setaria italica; Surface, 6 kg./ha.", "result": "0/1"}, {"measurement": "Weeding activity", "setting": "Setaria italica; [5]", "result": 3}, {"measurement": "Weeding activity", "setting": "Setaria italica; [6]", "result": 3}, {"measurement": "Weeding activity", "setting": "Setaria italica; [7]", "result": 3}, {"measurement": "Weeding activity", "setting": "Dactylis glomerata; Surface, 2 kg./ha.", "result": "1/2"}, {"measurement": "Weeding activity", "setting": "Dactylis glomerata; Surface, 4 kg./ha.", "result": "1/2"}, {"measurement": "Weeding activity", "setting": "Dactylis glomerata; Surface, 6 kg./ha.", "result": 3}, {"measurement": "Weeding activity", "setting": "Dactylis glomerata; [5]", "result": 3}, {"measurement": "Weeding activity", "setting": "Dactylis glomerata; [6]", "result": "4/3"}, {"measurement": "Weeding activity", "setting": "Dactylis glomerata; [7]", "result": "4/3"}, {"measurement": "Weeding activity", "setting": "Echinocloa crus galli; Surface, 2 kg./ha.", "result": 2}, {"measurement": "Weeding activity", "setting": "Echinocloa crus galli; Surface, 4 kg./ha.", "result": "1/2"}, {"measurement": "Weeding activity", "setting": "Echinocloa crus galli; Surface, 6 kg./ha.", "result": "1/2"}, {"measurement": "Weeding activity", "setting": "Echinocloa crus galli; [5]", "result": 3}, {"measurement": "Weeding activity", "setting": "Echinocloa crus galli; [6]", "result": 3}, {"measurement": "Weeding activity", "setting": "Echinocloa crus galli; [7]", "result": "3/4"}, {"measurement": "Acute toxicity LD50", "setting": "rats", "result": "500 to 725", "unit": "mg/kg"}]}, {"smiles": "CCC(C)N(C(=O)SCc1ccccc1)C(C)CC", "note": "(centres unmarked) [M3432, S-benzyl-N,N-disec.butylthiocarbamate]", "values": [{"measurement": "Infestation degree", "setting": "Alisma sp.; 4 kg./ha.", "result": "low (low = 0.5-1 plants per m^2)"}, {"measurement": "Infestation degree", "setting": "Alisma sp.; 6 kg./ha.", "result": "low (low = 0.5-1 plants per m^2)"}, {"measurement": "Infestation degree", "setting": "Scirpus sp.; 4 kg./ha.", "result": "low (low = 0.5-1 plants per m^2)"}, {"measurement": "Infestation degree", "setting": "Scirpus sp.; 6 kg./ha.", "result": "low (low = 0.5-1 plants per m^2)"}, {"measurement": "Infestation degree, plants per 10 square meters", "setting": "Echinocloa spp. [1]; 4 kg./ha.", "result": 0.25, "unit": "no."}, {"measurement": "Infestation degree, plants per 10 square meters", "setting": "Echinocloa spp. [1]; 6 kg./ha.", "result": 0.33, "unit": "no."}, {"measurement": "Weeding activity", "setting": "Setaria italica; Surface, 1 kg./ha.", "result": 3}, {"measurement": "Weeding activity", "setting": "Setaria italica; Surface, 2 kg./ha.", "result": 3}, {"measurement": "Weeding activity", "setting": "Setaria italica; Surface, 4 kg./ha.", "result": "4/3"}, {"measurement": "Weeding activity", "setting": "Setaria italica; Surface, 6 kg./ha.", "result": "4/3"}, {"measurement": "Weeding activity", "setting": "Setaria italica; [5]", "result": "3/4"}, {"measurement": "Weeding activity", "setting": "Setaria italica; [6]", "result": "4/3"}, {"measurement": "Weeding activity", "setting": "Setaria italica; [7]", "result": 4}, {"measurement": "Weeding activity", "setting": "Dactylis glomerata; Surface, 1 kg./ha.", "result": "3/4"}, {"measurement": "Weeding activity", "setting": "Dactylis glomerata; Surface, 2 kg./ha.", "result": 4}, {"measurement": "Weeding activity", "setting": "Dactylis glomerata; Surface, 4 kg./ha.", "result": "4/3"}, {"measurement": "Weeding activity", "setting": "Dactylis glomerata; Surface, 6 kg./ha.", "result": 4}, {"measurement": "Weeding activity", "setting": "Dactylis glomerata; [5]", "result": 4}, {"measurement": "Weeding activity", "setting": "Dactylis glomerata; [6]", "result": 4}, {"measurement": "Weeding activity", "setting": "Dactylis glomerata; [7]", "result": 4}, {"measurement": "Weeding activity", "setting": "Echinocloa crus galli; Surface, 1 kg./ha.", "result": 3}, {"measurement": "Weeding activity", "setting": "Echinocloa crus galli; Surface, 2 kg./ha.", "result": "3/4"}, {"measurement": "Weeding activity", "setting": "Echinocloa crus galli; Surface, 4 kg./ha.", "result": "4/3"}, {"measurement": "Weeding activity", "setting": "Echinocloa crus galli; Surface, 6 kg./ha.", "result": 4}, {"measurement": "Weeding activity", "setting": "Echinocloa crus galli; [5]", "result": "4/3"}, {"measurement": "Weeding activity", "setting": "Echinocloa crus galli; [6]", "result": 4}, {"measurement": "Weeding activity", "setting": "Echinocloa crus galli; [7]", "result": 4}, {"measurement": "Shoot", "setting": "Echinocloa spp. [2]", "result": 0, "unit": "cm."}, {"measurement": "Stand", "setting": "Echinocloa spp. [2]", "result": 0, "unit": "%"}, {"measurement": "Malformations of rice", "setting": "rice [3]", "result": "no malformations are noticed"}, {"measurement": "Main root", "setting": "rice [4]; 10 kg./ha.", "result": 11.3, "unit": "cm."}, {"measurement": "Secondary roots", "setting": "rice [4]; 10 kg./ha.", "result": 4.4, "unit": "number per plant"}, {"measurement": "Shoot", "setting": "rice [4]; 10 kg./ha.", "result": 19.97, "unit": "cm."}, {"measurement": "Sprouted plants", "setting": "rice [4]; 10 kg./ha.", "result": 71.1, "unit": "%"}, {"measurement": "Main root", "setting": "rice [4]; 20 kg./ha.", "result": 10.6, "unit": "cm."}, {"measurement": "Secondary roots", "setting": "rice [4]; 20 kg./ha.", "result": 5.1, "unit": "number per plant"}, {"measurement": "Shoot", "setting": "rice [4]; 20 kg./ha.", "result": 20.9, "unit": "cm."}, {"measurement": "Sprouted plants", "setting": "rice [4]; 20 kg./ha.", "result": 77.7, "unit": "%"}, {"measurement": "Main root", "setting": "rice [4]; 30 kg./ha.", "result": 11.1, "unit": "cm."}, {"measurement": "Secondary roots", "setting": "rice [4]; 30 kg./ha.", "result": 5.4, "unit": "number per plant"}, {"measurement": "Shoot", "setting": "rice [4]; 30 kg./ha.", "result": 23.4, "unit": "cm."}, {"measurement": "Sprouted plants", "setting": "rice [4]; 30 kg./ha.", "result": 80.0, "unit": "%"}]}]}
